These results are taken from ChEMBL document CHEMBL3407379, “Novel sesquiterpenes from Schisandra grandiflora: isolation, cytotoxic activity and synthesis of their triazole derivatives using "click" reaction” (Eur J Med Chem, 2015).

One experiment deals with HeLa. Kind of experiment: Cytotoxicity against human HeLa cells assessed as cell viability after 48 hrs by MTT assay. It counts as functional, cell-based.
The subject of the next experiment is A549. Kind of experiment: Cytotoxicity against human A549 cells assessed as cell viability after 48 hrs by MTT assay. It counts as functional, cell-based. As to conditions: A549, 48 h.
For the next experiment, the system named is DU-145. Kind of experiment: Cytotoxicity against human DU145 cells assessed as cell viability after 48 hrs by MTT assay. As to conditions: DU-145, 48 h. The experiment is classed as functional, cell-based.
The test system of the next experiment is MCF7. In words: Cytotoxicity against human MCF7 cells assessed as cell viability after 48 hrs by MTT assay. It counts as functional, cell-based. Particulars: MCF7, 48 h. On the technique in general: Tetrazolium assays rely on reduction of a dye to a coloured formazan, in cell work by metabolically active cells.
The next experiment has as its system B16. Kind of experiment: Cytotoxicity against mouse B16 cells assessed as cell viability after 48 hrs by MTT assay. The experiment is classed as functional, cell-based. Particulars: B16, 48 h.
The next experiment deals with HEK293. Kind of experiment: Cytotoxicity against HEK293 cells assessed as cell viability after 48 hrs by MTT assay. The experiment is classed as cell-based. Particulars: Homo sapiens, HEK293, 48 h.

Each structure is given as a SMILES string.

Broadly, the IC50 is the concentration at which inhibition is half-maximal.

With `CC1(C)CCCC23C=C[C@](C)(CC[C@@]12C)OO3`, the IC50 stood at 122 µM in the experiment with HeLa; 94.8 µM with A549; 114 µM in the experiment on DU-145; 129 µM with MCF7; 343 µM in the experiment on B16; 480 µM with HEK293.

In the case of `C=C1CC[C@@H](C(C)C)[C@]12CC=C(C=O)CC2`, the IC50 was found to be 269 µM with HeLa; 170 µM in the experiment with A549; 165 µM in the experiment on DU-145; 210 µM in the experiment with MCF7; 428 µM in the experiment with B16; 550 µM in the experiment with HEK293.

Turning to `C=C1CCC[C@]2(C)CCC(C=O)=CC[C@@]12C`, the IC50 came out at 190 µM in the experiment with HeLa; 145 µM with A549; 152 µM with DU-145; 319 µM in the experiment on MCF7; 230 µM with B16; 734 µM in the experiment with HEK293.

For `CC1(C)CCCC2=CC=C(C=O)CC[C@]21C`, the IC50 in the experiment with HeLa was 163 µM; with A549, 138 µM; in the experiment on DU-145 it was 191 µM; with MCF7, 166 µM; with B16, 145 µM; in the experiment with HEK293, 696 µM.

As to `CC1(C)CCC[C@]1(C)c1ccc(C=O)cc1`, the IC50 in the experiment with HeLa is 252 µM; with A549 it was 216 µM; in the experiment with DU-145 it was 260 µM; with MCF7, 202 µM; in the experiment with B16, 257 µM; in the experiment on HEK293 it was 771 µM.

With `C#CC1=CC[C@@]2(C)C(=C)CCC[C@]2(C)CC1`, the IC50 in the experiment on HeLa was found to be 158 µM; in the experiment with A549 it was 148 µM; in the experiment on DU-145 it was 386 µM; in the experiment on MCF7, 575 µM; in the experiment on B16, 507 µM; with HEK293, 524 µM.

Turning to `C#CC1=CC[C@]2(CC1)C(=C)CC[C@H]2C(C)C`, the IC50 in the experiment with HeLa worked out at 97.6 µM; in the experiment on A549, 103 µM; in the experiment with DU-145, 121 µM; in the experiment with MCF7, 135 µM; in the experiment on B16, 123 µM; with HEK293, 740 µM.

In the case of `C=C1CCC[C@]2(C)CCC(c3cn(-c4ccc(OC)cc4)nn3)=CC[C@@]12C`, the IC50 in the experiment on HeLa stood at 43.6 µM; with A549, 34.6 µM; in the experiment on DU-145 it was 58.9 µM; with MCF7, 118 µM; with B16 it was 209 µM; in the experiment on HEK293 it was 410 µM.

Take `C=C1CCC[C@]2(C)CCC(c3cn(-c4ccc(C(C)=O)cc4)nn3)=CC[C@@]12C`: the IC50 in the experiment with HeLa is 15.1 µM; in the experiment on A549 it was 46.4 µM; in the experiment on DU-145 it was 51.7 µM; in the experiment with MCF7, 65.4 µM; with B16, 61 µM; in the experiment on HEK293, 520 µM.

For the compound `C=C1CCC[C@]2(C)CCC(c3cn(-c4cccc([N+](=O)[O-])c4)nn3)=CC[C@@]12C`, the 50% inhibitory concentration (IC50) in the experiment with HeLa stood at 31.9 µM; in the experiment with A549, 24.7 µM; with DU-145, 62.5 µM; in the experiment with MCF7, 40.3 µM; in the experiment on B16 it was 31.7 µM; in the experiment with HEK293, 699 µM.

Consider `C=C1CCC[C@]2(C)CCC(c3cn(-c4ccc(I)cc4)nn3)=CC[C@@]12C`, for which the IC50 in the experiment on HeLa amounted to 144 µM; in the experiment with A549, 137 µM; with DU-145, 145 µM; with MCF7, 162 µM; with B16, 144 µM; in the experiment on HEK293 it was 215 µM.

In the case of `C=C1CCC[C@]2(C)CCC(c3cn(-c4ccccc4C(C)=O)nn3)=CC[C@@]12C`, the IC50 with HeLa was 55.7 µM; in the experiment with A549 it was 37.6 µM; in the experiment with DU-145, 48.5 µM; in the experiment with MCF7, 29.9 µM; in the experiment with B16, 42.2 µM; with HEK293 it was 524 µM.

As to `C=C1CCC[C@]2(C)CCC(c3cn(CC(=O)Nc4ccc(C)cc4)nn3)=CC[C@@]12C`, the IC50 with HeLa came out at 131 µM; with A549, 270 µM; in the experiment with DU-145 it was 254 µM; in the experiment on MCF7, 80.1 µM; in the experiment with B16, 210 µM; in the experiment on HEK293, 622 µM.

Take `C=C1CCC[C@]2(C)CCC(c3cn(-c4cccc(OC)c4)nn3)=CC[C@@]12C`: the IC50 came out at 27.9 µM with HeLa; 11.2 µM with A549; 38.9 µM in the experiment on DU-145; 56.2 µM in the experiment with MCF7; 34.6 µM with B16; 734 µM in the experiment on HEK293.

Consider `C=C1CCC[C@]2(C)CCC(c3cn(-c4ccc(Cl)cc4)nn3)=CC[C@@]12C`, for which the IC50 in the experiment on HeLa worked out at 18.8 µM; in the experiment on A549, 20.1 µM; in the experiment on DU-145, 26 µM; in the experiment with MCF7, 35.1 µM; in the experiment on B16, 27.2 µM; in the experiment with HEK293, 609 µM.

`C=C1CCC[C@]2(C)CCC(c3cn(-c4ccc(C)cc4)nn3)=CC[C@@]12C`: the IC50 with HeLa came to 69.1 µM; in the experiment with A549, 58.8 µM; in the experiment with DU-145, 132 µM; in the experiment on MCF7, 54.9 µM; with B16, 57.6 µM; in the experiment with HEK293, 524 µM.

As for `C=C1CCC[C@]2(C)CCC(c3cn(CC(=O)Nc4ccccc4)nn3)=CC[C@@]12C`, the IC50 was 62.9 µM in the experiment with HeLa; 72.2 µM in the experiment with A549; 146 µM in the experiment on DU-145; 148 µM with MCF7; 148 µM in the experiment with B16; 491 µM in the experiment on HEK293.

Turning to `C=C1CCC[C@]2(C)CCC(c3cn(-c4cc(OC)c(OC)cc4OC)nn3)=CC[C@@]12C`, the IC50 in the experiment with HeLa was found to be 45 µM; in the experiment on A549, 32.6 µM; in the experiment with DU-145, 49.4 µM; in the experiment on MCF7 it was 41.1 µM; with B16, 47.2 µM; with HEK293, 334 µM.

For `C=C1CC[C@@H](C(C)C)[C@]12CC=C(c1cn(CC(=O)Nc3ccc(C)cc3)nn1)CC2`, the IC50 in the experiment with HeLa stood at 54.1 µM; in the experiment with A549 it was 31.7 µM; with DU-145, 44.5 µM; in the experiment with MCF7, 142 µM; in the experiment with B16, 195 µM; in the experiment on HEK293 it was 303 µM.

Take `C=C1CC[C@@H](C(C)C)[C@]12CC=C(c1cn(-c3cc(OC)c(OC)cc3OC)nn1)CC2`: the IC50 amounted to 37.4 µM in the experiment on HeLa; 20.5 µM with A549; 29.7 µM in the experiment on DU-145; 44 µM with MCF7; 29.1 µM in the experiment on B16; 509 µM in the experiment with HEK293.

Regarding `C=C1CC[C@@H](C(C)C)[C@]12CC=C(c1cn(-c3ccc(OC)cc3)nn1)CC2`, the IC50 in the experiment on HeLa amounted to 54.9 µM; with A549, 43.6 µM; with DU-145, 65.1 µM; in the experiment on MCF7 it was 63.1 µM; with B16, 107 µM; in the experiment with HEK293, 388 µM.

With `COc1cccc2c1C(=O)c1c(O)c3c(c(O)c1C2=O)C[C@@](O)(C(=O)CO)C[C@@H]3O[C@H]1C[C@H](N)[C@H](O)[C@H](C)O1` [DOXORUBICIN], the IC50 with HeLa was 3.57 µM; in the experiment with DU-145 it was 5.3 µM; in the experiment on MCF7 it was 2.24 µM; with B16 it was 2.78 µM.
